Experimental data: paper PMC3196344 (Nature medicine, 2009)

Columns and labels:
caspases-3/7 = conditions: cited from earlier work
cathepsins = conditions: cited from earlier work
legumain [1] = conditions: cited from earlier work
[2] = exposed during late stages of apoptosis; cited from earlier work
[3] = leading to high background signals; cited from earlier work
CD4+/CD8+ thymocytes = assay: Flow cytometry of thymocytes from dex-treated mice; assay type: in vivo, BALB/c mice; conditions: measured by a drop in this cell population over time; dex 50 mg/kg IP
thymocytes = conditions: after dex treatment; cited from earlier work
caspase-3/7 = assay: Caspase labeling in COLO205 tumors of Apomab-treated mice, SDS-PAGE; assay type: in vivo, human colorectal cancer COLO205 xenograft in nude mice; conditions: Apomab 10 mg/kg IV; AB50-Cy5 50 nmol IV 1 h; COLO205 xenograft
legumain [4] = assay: Legumain labeling in COLO205 tumors of Apomab-treated mice, SDS-PAGE; assay type: in vivo, human colorectal cancer COLO205 xenograft in nude mice; conditions: Apomab 10 mg/kg IV; AB50-Cy5

Asp-Glu-Val-Asp [DEVD]
recognition by caspases-3/7 (caspases-3/7): optimal | recognition by cathepsins (cathepsins): efficiently recognized | recognition by legumain (legumain [1]): efficiently recognized

Annexin V: protein with high affinity for phosphatidylserines exposed during the late stages of apoptosis
affinity for phosphatidylserines [2]: high affinity | clearance in vivo [3]: slow clearance in vivo

C[C@@H]1C[C@H]2[C@@H]3CCC4=CC(=O)C=C[C@]4(C)[C@@]3(F)[C@@H](O)C[C@]2(C)[C@@]1(O)C(=O)CO [dexamethasone]
induction of apoptosis in CD4+/CD8+ cells (CD4+/CD8+ thymocytes): specifically induced apoptosis in CD4+/CD8+ cells | TUNEL+ staining at 18 and 24 hours (thymocytes): sharp decrease

Apomab: monoclonal antibody that induces the extrinsic apoptosis pathway by binding to death receptor 5
time of optimal (peak) caspase activity after Apomab (caspase-3/7): 12 h | legumain labeling over time course after Apomab (legumain [4]): constant throughout the time course
